Read-outs that look alike come from different tables or passages of the source.
Assays:
[1] = system: Messa-Dx5; test: 72-h MTT cytotoxicity assay, Messa-Dx5; type: cell-based; settings: Homo sapiens, MES-SA/Dx5, 72 h; Messa-Dx5, Uterus sarcoma; read-out: Anti-proliferative activity, 72-h MTT IC50
Description: (§1) Representative bisarylsulfonamide compounds were tested on a panel of transformed and non-transformed human cell lines, using a standard 72-h MTT cytotoxicity assay [Haselsberger K et al, ibid].

[2] = system: IMR90; test: 72-h MTT cytotoxicity assay, IMR90; type: cell-based; settings: Homo sapiens, IMR-90, 72 h; IMR90, Lung fibroblasts; read-out: Anti-proliferative activity, 72-h MTT IC50
Description: as §1

[3] = system: Nci-H460; test: 72-h MTT cytotoxicity assay, Nci-H460; type: cell-based; settings: Homo sapiens, Nci-H460, Large cell lung carcinoma, read-out: Anti-proliferative activity, 72-h MTT IC50
Description: as §1

[4] = system: carcinoma cell lines; test: 72-h MTT panel, average carcinomas; type: cell-based; settings: Homo sapiens, average over carcinoma cell lines, read-out: Anti-proliferative activity, 72-h MTT IC50, Average carcinomas
Description: as §1
(§2) This differential selectivity further supports the notion that the bisarylsulfonamides modulate cellular HDM2 function. It is known that HDM2 amplification is particularly common in soft tissue sarcomas and osteosarcomas [Momand J et al, ibid; Bartel F, Meye A, Wurl P, Kappler M, Bache M, Lautenschlager C, Grunbaum U, Schmidt H, Taubert H; Int. J. Cancer 2001; 95: 168-175].

[5] = system: HT29; test: 72-h MTT cytotoxicity assay, HT29; type: cell-based; settings: Homo sapiens, HT-29, 72 h; HT29, Colon adenocarcinoma; read-out: Anti-proliferative activity, 72-h MTT IC50
Description: as §1

[6] = system: SJSA-1; test: 72-h MTT cytotoxicity assay, SJSA-1; type: cell-based; settings: Homo sapiens
How it was run: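 Antiproliferative activity was measured on human tumour lines of differing genetic background: SJSA-1, a primitive multipotential bone sarcoma with wild-type p53 and overexpressed HDM2; H1299, a large cell lung carcinoma, p53 null with low HDM2; and AGS, a gastric adenocarcinoma carrying wild-type p53.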

[7] = system: SK-N-MC; test: 72-h MTT cytotoxicity assay, SK-N-MC; type: cell-based; settings: Homo sapiens, Neuriepithelioma, read-out: Anti-proliferative activity, 72-h MTT IC50
Description: as §1

[8] = system: Saos-2; test: 72-h MTT cytotoxicity assay, Saos-2; type: cell-based; settings: Homo sapiens, Saos-2, Osteosracoma, read-out: Anti-proliferative activity, 72-h MTT IC50
Description: as §1

[9] = system: HCT116; test: 72-h MTT cytotoxicity assay, HCT116; type: cell-based; settings: Homo sapiens, HCT-116, 72 h; HCT116, Colon carcinoma; read-out: Anti-proliferative activity, 72-h MTT IC50
Description: as §1

[10] = system: p53; test: p53 reporter gene assay (U2OS-derived luciferase reporter cell line); settings: for Fold induction of luciferase activity: compared to basal luciferase activity, 16-h time point, at concentration of maximal induction; for Concentration (test compound concentration at which the p53 induction was maximal): p53 reporter, U2OS-derived cell line
Description: A dual assay assessing both cell viability and p53 response was employed. A U2OS-derived cell line stably transfected with a p53 response element and a luciferase reporter gene was created. […] After seeding of cells into 96-well tissue culture plates, treatment with test compounds, and incubation for the desired duration, the cell proliferation reagent WST-1 (Roche Molecular Biochemicals) was used to determine cell viability. The Bright-Glo™ Luciferase Assay System (Promega) was used to measure luciferase activity. The data from the cell viability assay was used to normalise data from the luciferase assay.

[11] = system: E2F transcription factors; test: E2F reporter gene assay (A549-derived luciferase reporter cell line); type: cell-based; settings: Homo sapiens
Description: A similar system to the p53 reporter assay described above was used, with the exception that it was designed to be responsive to E2F transcription factors rather than p53. An A549-derived cell line stably transfected with an E2F response element and a luciferase reporter gene was created. The genetic expression cassette construct used was from Clontech (Mercury™ Cell Cycle Profiling System). Assays were carried out as described above.
Representative bisarylsulfonamides were tested in the E2F gene reporter assay described in Example 6.

[12] = system: A549; test: 72-h MTT cytotoxicity assay, A549; type: cell-based; settings: Homo sapiens, A549, Lung carcinoma, read-out: Anti-proliferative activity, 72-h MTT IC50
Description: as §1

[13] = system: HS27; test: 72-h MTT cytotoxicity assay, HS27; type: cell-based; settings: Homo sapiens, HS27, Foreskin fibroblasts, read-out: Anti-proliferative activity, 72-h MTT IC50
Description: as §1

[14] = system: MCF7; test: 72-h MTT cytotoxicity assay, MCF7; type: cell-based; settings: Homo sapiens, MCF7, Breast adenocarcinoma, read-out: Anti-proliferative activity, 72-h MTT IC50
Description: as §1

[15] = system: transformed human cell lines; test: 72-h MTT panel, average transformed; type: cell-based; settings: average over transformed cell lines, read-out: Anti-proliferative activity, 72-h MTT IC50, Average transformed
Description: as §1, §2

[16] = target: T1, HDM2 (Homo sapiens, UniProt Q00987); test: Fluorescence polarisation competitive HDM2 binding assay
T1 construct: Recombinant HDM2 (1.5 μg per well) in TBS-BSA buffer
T1 sequence (Q00987 whole entry): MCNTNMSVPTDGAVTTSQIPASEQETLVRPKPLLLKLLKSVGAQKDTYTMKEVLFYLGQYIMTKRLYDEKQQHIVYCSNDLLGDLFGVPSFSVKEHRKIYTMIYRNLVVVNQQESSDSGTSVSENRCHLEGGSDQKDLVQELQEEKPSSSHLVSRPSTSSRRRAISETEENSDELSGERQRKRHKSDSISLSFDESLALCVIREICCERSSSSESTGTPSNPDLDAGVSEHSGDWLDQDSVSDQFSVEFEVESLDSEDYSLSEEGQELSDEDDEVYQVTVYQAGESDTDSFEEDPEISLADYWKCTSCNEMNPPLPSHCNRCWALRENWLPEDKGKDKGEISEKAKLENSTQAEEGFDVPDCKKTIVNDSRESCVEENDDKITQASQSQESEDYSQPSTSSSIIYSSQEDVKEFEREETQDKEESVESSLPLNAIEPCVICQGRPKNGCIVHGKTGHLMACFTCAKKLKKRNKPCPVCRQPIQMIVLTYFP
How it was run: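 Recombinant HDM2 (1.5 μg/well) was preincubated 5 min at room temperature with serially diluted compound in 50 mM Tris pH 7.4, 150 mM NaCl, 0.1% BSA, 5% DMSO final. Fluorescein-labelled p53 peptide (0.2 μM) was then added for 45 min. Polarisation was read at 485/520 nm and IC50 derived from dose-response curves.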

[17] = system: HeLa; test: 72-h MTT cytotoxicity assay, HeLa; type: cell-based; settings: Homo sapiens, Cervical carcinoma, read-out: Anti-proliferative activity, 72-h MTT IC50
Description: as §1

[18] = system: NaCat; test: 72-h MTT cytotoxicity assay, NaCat; type: cell-based; settings: Keratinocyte, Human keratinocytes, read-out: Anti-proliferative activity, 72-h MTT IC50
Description: as §1

[19] = system: WI38; test: 72-h MTT cytotoxicity assay, WI38; type: cell-based; settings: Homo sapiens, WI-38, 72 h; WI38, Lung fibroblasts; read-out: Anti-proliferative activity, 72-h MTT IC50
Description: as §1

[20] = system: SKUT-1; test: 72-h MTT cytotoxicity assay, SKUT-1; type: cell-based; settings: Homo sapiens, SK-UT-1, 72 h; SKUT-1, Uterus leiomyosarcoma; read-out: Anti-proliferative activity, 72-h MTT IC50
Description: as §1

[21] = 72 h, SJSA-1, Osteosracoma, Table 2, read-out: Anti-proliferative activity, 72-h MTT IC50
[22] = SJSA-1, 72-h MTT, Table 1, read-out: IC50 Anti-proliferative effect on cell line SJSA-1
[23] = after 3-h treatment with test compounds, read-out: IC50 E2F reporter, Non-synchronised cells
[24] = fluorescence polarisation assay, Table 3, read-out: In vitro competitive HDM2 binding assay IC50
[25] = fluorescence polarisation format, Table 1, read-out: IC50 In vitro competitive HDM2 binding assay
[26] = after 3-h treatment, synchronisation with 0.3 mM mimosine for 24 h, followed by wash-out, read-out: IC50 E2F reporter, Synchronised cells

Row | IC50 [4] | Fold induction of luciferase activity [10] | IC50 [11, 23] | IC50 [16, 24] | IC50 [16, 25] | SMILES | IC50 [1] | IC50 [2] | IC50 [3] | IC50 [5] | IC50 [6, 21] | IC50 [6, 22] | IC50 [7] | IC50 [8] | IC50 [9] | Concentration (test compound concentration at which the p53 induction was maximal) [10] | IC50 [12] | IC50 [13] | IC50 [14] | IC50 [15] | IC50 [17] | also measured
1 | 3.1 ± 1.2 µM | 231 fold | 23.2 ± 4 µM | 26.4 ± 3.4 µM | 26.4 ± 3.4 µM | O=[N+]([O-])c1cc(S(=O)(=O)Nc2ccc(Cl)cc2)sc1Cl [Compound 2, 5-Chloro-4-nitrothiophene-2-sulfonic acid (4-chlorophenyl)-amide] | 9.5 µM | 23.1 µM | 3.3 µM | 2.1 µM | 13.5 µM | 13.6 ± 1.1 µM | 3 µM | 9.5 µM | 2.8 µM | 6 µM | 5.2 µM | 17.3 µM | 2.7 µM | 5.7 ± 3.9 µM | 2.8 µM | IC50 ([6]; SJSA-1, Example 9, read-out: anti-proliferative IC50 concentration determined for each cell line): 15 µM; IC50 [18]: 9.3 µM; IC50 [19]: 22.7 µM; IC50 [20]: 8.8 µM
2 | 3.8 ± 1.8 µM | 200 fold | 28.8 ± 2.3 µM | 41.9 ± 5.8 µM | 41.9 ± 5.8 µM | O=[N+]([O-])c1cc(S(=O)(=O)Nc2ccc(F)cc2)sc1Cl [Compound 3, 5-Chloro-4-nitrothiophene-2-sulfonic acid (4-fluorophenyl)amide] | 12.1 µM | 19.8 µM | 5.2 µM | 2.3 µM | 14.1 µM | 17.1 ± 0.4 µM | 3.8 µM | 8.9 µM | 3.5 µM | 6 µM | 5.9 µM | 15.2 µM | 1.9 µM | 6.9 ± 5 µM | 2.7 µM | IC50 [11, 26]: 69 ± 30 µM; IC50 [18]: 10.5 µM; IC50 [19]: 21.1 µM; IC50 [20]: 14.1 µM
3 | 4.9 ± 2.3 µM | 84 fold | 37.5 ± 12.9 µM | 20.4 ± 1.4 µM | 20.4 ± 1.4 µM | O=[N+]([O-])c1cc(S(=O)(=O)Nc2ccc(C(F)(F)F)cc2)sc1Cl [Compound 6, 5-Chloro-4-nitrothiophene-2-sulfonic acid (4-trifluoromethylphenyl)amide] | 15.5 µM | 29.8 µM | 8 µM | 3.5 µM | 17.8 µM | 22.5 ± 0.6 µM | 2.9 µM | 12 µM | 6 µM | 5.5 µM | 10 µM | 21.4 µM | 3.3 µM | 8.4 ± 5.1 µM | 3.9 µM | IC50 [11, 26]: 39 µM; IC50 [18]: 10.6 µM; IC50 [19]: 30 µM; IC50 [20]: 15 µM

Source: patent US20050215548A1 (Cyclacel Limited, priority 2002, published 2005)
